Results on ten compounds are retold here after patent publication US10647680B2, “Urea compound, preparation method therefor and medical use thereof” (Ancureall Pharmaceutical (Shanghai) Co., Ltd., priority 2016, dated 2020).

The subject of assay [1] is NCI-H460 (KRAS G61H mutant type). The assay is described as follows: In vitro growth inhibition (GI50), NCI-H460. In kind it is cell-based. The settings on record: Homo sapiens. The source says: Tumor cell line is an effective cell model for studying the inhibition of tumor cell growth or proliferation in vitro. In the present invention, a representative tumor cell line was selected to determine the cell growth inhibition activity of the present compound. All cell lines used were from ATCC, DSMZ, and the Cell Bank of the Chinese Academy of Sciences. Cell culture conditions and methods were in accordance with the requirements of each cell line. Cells were subcultured in vitro for no more than 3 passages each time, and as required, single-clone purification and identification of cell lines could be carried out.
The cell culture media used were RPMI1640 (Gibco), MEM (Gibco), McCOY'S5A (Gibco), and IMDM (Gibco). The complete medium was prepared by supplement with 5˜20% fetal calf serum (Gibco), 1% double-antibiotics (10000 units/mL penicillin and 10000 units/mL), 2 mM glutamine or 1 mM sodium pyruvate, respectively.
Human large cell lung cancer cell NCI-H460 (KRAS […] mutant type, ATCC), human non-small cell lung cancer cell line H1299 (NRAS Q61K mutant type, ATCC), human melanoma cell line A375 (BRAF V600E mutant type, Shanghai Cell Bank of Chinese Academy of Sciences), human colon cancer cell line HCT116 (KRAS G13D mutant type, Shanghai Cell Bank, Chinese Academy of Sciences) were cultured in a complete medium of 1×RPMI1640 (10% FBS), respectively. Human non-small cell lung cancer cells A549 (KRAS G12S mutant type, Shanghai Cell Bank, Chinese Academy of Sciences) were cultured in a complete medium of 1× Ham's supplemented with 10% FBS, 1% double antibody, and 2 mM glutamine.
Adherent cells were digested with 0.25% pancreatin-EDTA (Gibco). The suspension cells were collected by centrifugation. The supernatant was discarded and the cell pellet was resuspended and counted. Different cell concentrations (5˜10×10^4 cells/mL) were prepared according to the growth cycle of each cell line and then seeded on a 96-well plate (Corning), 100 μL/well. The cells were incubated overnight at 37° C., 5% CO2. The compounds were added to the cells on the second day with 2 wells in parallel. The final concentration of organic solvent shall not exceed 1%. The cells were continually incubated for 3 to 5 days, and then subjected to MTT assay.
The compound of the present invention and the control compound were dissolved in DMSO (Sigma) respectively, with the purity of more than 98%. The compound was stored in a concentration of 10 mM at −20° C. and diluted to 2- or 10-fold series prior to use.
Dojindo CCK8 reagent kit was used as MTT assay. THERMO […] FC meter was used as microplate reader.
For adherent cells, culture medium was removed and immediately replaced with the fresh prepared medium which contains 10% CCK8 reagent (100 μL/well). For the suspension cells, CCK8 was directly added to 10% of the final concentration. The cells were continually incubated for 1˜4 h. When a dark yellow color could be observed in the solvent control wells, the absorbance value at OD450 nm was measured and the cell growth rate was calculated according to the following formula: Cell Growth Rate (%)=100*(T−T0)/(C−T0) T=optical density of drug treatment cell well—optical density of blank control well; T0=optical density of cell well before drug treatment—optical density of blank control well; C=optical density of cell well of solvent control group—optical density of blank control well. The concentration value of 50% inhibition of cell growth (GI50) was calculated according to the drug concentration and cell growth rate curve. The experiment was independently repeated 1˜3 times, and subject to biological statistical analysis. 4. Experimental Results
Tumor cell growth inhibition test was performed by selecting representative compounds (compounds 4, 11, 12, 16, 27, 68, 71, 77, 79, 89 and 116 of the present invention). The initial concentration of the compound was 5,000 nM, then it was serially diluted by 2-fold or 10-fold to 0.01 nM. […]

In a further assay the test system is U937 (FLT3 wild-type). Kind of assay: In vitro growth inhibition (GI50), U937. The class given is cell-based. The settings on record: Homo sapiens, U-937; Cell lines of leukemia; read-out: GI 50 U937 FLT 3(WT).

Take `CC(C)(C)c1cc(NC(=O)Nc2ccc(-n3cnc4cc(O)ccc43)cc2)no1` [Compound 4, 1-(5-tert-butyl-isoxazol-3-yl)-3-[4-(5-hydroxy-benzimidazol-1-yl)-phenyl]-urea]: the results for the GI50 (in assay [1]; in the assay on U937 (FLT3 wild-type)) were over 2500 nM and 100 to 1000 nM, respectively.
For `CC(C)(C)c1cc(NC(=O)Nc2ccc(-n3cnc4cc(OCCO)ccc43)cc2)no1` [Compound 11, 1-(5-tert-butyl-isoxazol-3-yl)-3-{4-[5-(2-hydroxy-ethoxyl)-benzimidazol-1-yl]-phenyl]-urea], the GI50 was over 2500 nM in assay [1] and over 1000 nM in the assay on U937 (FLT3 wild-type).
The like results for `CC(C)(C)c1cc(NC(=O)Nc2ccc(-n3cnc4cc(OCCN5CCOCC5)ccc43)cc2)no1` [Compound 16, 1-(5-tert-butyl-isoxazol-3-yl)-3-{4-[5-(2-morpholin-4-yl-ethoxyl)-benzimidazol-1-yl]-phenyl}-urea] were, in that order, over 2500 nM and over 1000 nM.
Regarding `CC(C)(C)c1cc(NC(=O)Nc2ccc(-n3cnc4ccc(OCCN5CCOCC5)cc43)cc2)no1` [Compound 27, 1-(5-tert-butyl-isoxazol-3-yl)-3-{4-[6-(2morpholin-4-yl-ethoxyl)-benzimidazol-1-yl]-phenyl}-urea], the figures for the GI50 (in assay [1]; in the assay on U937 (FLT3 wild-type)) were over 2500 nM and over 1000 nM, respectively.
In the same order, the values of `CC(C)(C)c1cc(NC(=O)Nc2ccc(-n3cnc4ccccc43)cc2)[nH]n1` [Compound 68, 1-(4-benzimidazol-1-yl-phenyl)-3-(5-tert-butyl-2H-pyrazol-3-yl)-urea] are over 2500 nM and over 1000 nM.
As for `COc1ccc2c(c1)ncn2-c1ccc(NC(=O)Nc2cc(C(C)(C)C)n[nH]2)cc1` [Compound 71, 1-(5-tert-butyl-2H-pyrazol-3-yl)-3-[4-(5-methoxyl-benzimidazol-1-yl)-phenyl]-urea], the figures for the GI50 (in assay [1]; in the assay on U937 (FLT3 wild-type)) were over 2500 nM and over 1000 nM, respectively.
The like results for `COCCOc1ccc2c(c1)ncn2-c1ccc(NC(=O)Nc2cc(C(C)(C)C)n[nH]2)cc1` [Compound 77, 1-(5-tert-butyl-2H-pyrazol-3-yl)-3-{4-[5-(2-methoxyl-ethoxyl)-benzimidazol-1-yl]-phenyl}-urea] were, in that order, over 2500 nM and over 1000 nM.
Turning to `CC(C)(C)c1cc(NC(=O)Nc2ccc(-n3cnc4cc(OCCO)ccc43)cc2)[nH]n1` [Compound 79, 1-(5-tert-butyl-2H-pyrazol-3-yl)-3-{4-[5-(2-hydroxy-ethoxyl)-benzimidazol-1-yl]-phenyl]urea], the figures for the GI50 (in assay [1]; in the assay with U937 (FLT3 wild-type)) were over 2500 nM and over 1000 nM, respectively.
`CC(C)(C)c1cc(NC(=O)Nc2ccc(-n3cnc4cc(OCCN5CCOCC5)ccc43)cc2)[nH]n1` [Compound 89, 1-(5-tert-butyl-2H-pyrazol-3-yl)-3-{4-[5-(2-morpholin-4-yl-ethoxyl)-benzimidazol-1-yl]-phenyl}-urea]: the GI50 in assay [1] is over 2500 nM; with U937 (FLT3 wild-type), over 1000 nM.
`CC(C)(C)c1cc(N)n(C(=O)Nc2ccc(-n3cnc4ccccc43)cc2)n1` [Compound 116, 5-amino-3-tert-butyl-pyrazol-1-carboxylic acid (4-benzimidazol-1-yl-phenyl)-amide]: the GI50 was over 2500 nM in assay [1] and over 1000 nM in the assay on U937 (FLT3 wild-type).
